What was measured:
[1] = tested on: subjects who had NAFLD in 31 IU/L or more of ALT; details: Case IDs 1 to 9 (group affected); at least one week after initiation; glutathione 300 mg per day orally
[2] = tested on: Mice (C57/B6J, 8 weeks old male) fed with high-fat food
Text: Mice (C57/B6J, 8 weeks old male) were divided into 4 groups (5 animals each), and the first group (DB) was freely fed with ordinary food (Certified Diet “MF” manufactured by Oriental Yeast Co., ltd.). The second group (HFD) was freely fed with high-fat food (High Fat Diet 32, manufactured by CLEA Japan, Inc.), […].
When the mouse was 20 weeks old, the body weight, the liver weight, the serum aspartate aminotransferase (AST), the alanine aminotransferase (ALT), the serum triglyceride (TG), the free fatty acid value (FFA) and the total cholesterol value (T-cho) were measured.

For `N[C@@H](CCC(=O)N[C@@H](CS)C(=O)NCC(=O)O)C(=O)O` [glutathione], the “improvement of ALT after the administration versus before initiation (0 wk)” value [1] was no less than 20%, the “serum AST” value ([2]; HFD6 (6 mg/kg/day) and HFD60 (60 mg/kg/day) groups in comparison to the HFD group, 20 weeks old, concentration dependent, FIG. 5A) was “significant decrease” and the “serum ALT” value ([2]; HFD6 (6 mg/kg/day) and HFD60 (60 mg/kg/day) groups in comparison to the HFD group, 20 weeks old, concentration dependent, FIG. 5B) was “significant decrease”. The “serum TG (triglyceride value)” value ([2]; HFD6 (6 mg/kg/day) and HFD60 (60 mg/kg/day) groups in comparison to the HFD group, 20 weeks old, concentration dependent, FIG. 6A) was “significant decrease”, the “serum FFA (free fatty acid value)” value ([2]; HFD6 (6 mg/kg/day) and HFD60 (60 mg/kg/day) groups in comparison to the HFD group, 20 weeks old, concentration dependent, FIG. 6B) was “significant decrease” and the “serum T-cho (total cholesterol value)” value ([2]; HFD6 (6 mg/kg/day) and HFD60 (60 mg/kg/day) groups in comparison to the HFD group, 20 weeks old, concentration dependent, FIG. 6C) was “significant decrease”. The “consumption amount of feed” value ([2]; all of the groups (DB, HFD, HFD6, HFD60), FIG. 3A) was “no significant difference”, the “consumption amount of water” value ([2]; all of the groups (DB, HFD, HFD6, HFD60), FIG. 3B) was “no significant difference” and the liver weight ([2]; high-fat food mice, glutathione 6 and 60 mg/kg/day in water, 20 weeks old, FIG. 4A) was “decreased dependently on the concentration”. For the same compound, the “ratio of liver weight/body weight” value ([2]; high-fat food mice, glutathione 6 and 60 mg/kg/day in water, 20 weeks old, FIG. 4B) was “decrease of the body weight ratio was also recognized”, the “deposition of fat on the liver by high-fat food” value ([2]; high-fat food mice, glutathione 6 and 60 mg/kg/day in water, concluded from liver weight) was “suppressed” and the body weight ([2]; high-fat food mice, glutathione 6 or 60 mg/kg/day in water, FIGS. 1 and 2) was “decrease of the body weight was recognized”.
